Assay [1] deals with truncated KDM3B catalytic domain. The assay is described as follows: WaterLOGSY NMR binding assay. The following applies: 100 μM. The source says:
(§1) A WaterLOGSY assay and a Carr-Purcell Meiboom-Gill (CPMG) based assay were used to investigate protein-ligand binding affinity between PFI-90 and a truncated KDM3B catalytic domain.
In traditional proton NMR experiments, a series of peaks are generated that represent the structure of a solitary small molecule, whereas the WaterLOGSY experiment examines the behavior of a small molecule's peaks in the presence of a potential target. This is achieved by observing differences in interaction between a small molecule interacting with water co-occupying a binding cleft on a target as compared to water dispersed freely in solution. The experiment then depicts the ratio of bound to unbound small molecule by phasing proton NMR spectra on the X-axis in opposing directions depending on the magnitude of that ratio (i.e., increasing ratios above 1 will phase positively, decreasing ratios below 1 will phase negatively).

For assay [2] the test system is unchanged. As to the kind of experiment: CPMG relaxation editing NMR binding assay. The following applies: 100 μM.
Excerpt: as §1
CPMG (Carr-Purcell-Meiboom-Gill) Relaxation Editing Proton NMR is another drug-discovery NMR experiment that may be used in conjunction with WaterLOGSY to orthogonally validate the presence of a reversible binding interaction of mild to high affinity from a small molecule to a label-free target. In contrast to WaterLOGSY, all peaks are phased above the X-axis. Instead, this experiment filters out the proportion of peak height that is contributed from the quantity of small molecule bound to a target of high molecular weight (e.g., a protein). Once the attenuation of peak height is equivalent to a 20% reduction, the compound is said to bind, with an increasing ratio of bound to unbound small molecules manifesting in increasing signal attenuation.

For assay [3], the system named is PAX3-FOXO1 fusion transcription factor. As to the kind of experiment: RH4 ALK-Luc luciferase reporter assay (PAX3-FOXO1 super enhancer activity). The format is cell-based, human. Conditions: RH4 ALK-Luc reporter. On the procedure: The screen was performed using two derivatives of RH4 FP-RMS cells: • (1) “ALK-Luc cells”—RH4 cells expressing a pGreenFire green fluorescent protein (GFP)-luciferase reporter (SEQ ID NO: 1) controlled by the PAX3-FOXO1-dependent intronic ALK super enhancer (for reporting on PAX3-FOXO1 activity) (FIGS. 1 and 2); and • (2) “CMV-Luc cells”—control RH4 cells in which the reporter is transcribed from a constitutively active cytomegalovirus (CMV) promoter. An Example of visualization via the ALK-Luc reporter is depicted in FIG. 3.
The cells were enriched for reporter expression levels and used for assay development. A high throughput screening assay was developed after optimization of cell seeding density, length of incubation of cells prior to and post treatment with test compounds, and effect of passaging among other factors. The screen was designed to identify compounds that suppressed PAX3-FOXO1 activity without disrupting viability (at a short time points) or general transcription. The assay simultaneously monitors the function of the PAX3-FOXO1 super enhancer (also referred to as “ALK super enhancer”), general transcriptional activity as well as cell viability.
The visual summary of the screening strategy is illustrated in FIG. 4. ALK-Luc cells were seeded in both white-walled and white-bottomed 384-well plates (Perkin Elmer, Cat #6007658) for luciferase assays and in clear 384-well plates (Perkin Elmer, Cat #6007688) for viability assay (XTT reduction) by transferring 27 μL of cell suspensions (seeding 3000 cells per well) into each well. The plates were then transferred into an incubator for 18-20 h. The CMV-Luc cells were similarly seeded into white plates and incubated.
A pure compound library of 62,643 compounds consisting of synthetic and natural products described previously (Grohar et al., J Natl. Cancer Inst., 103: 962-978 (2011)) was then used in a high throughput screening campaign to identify inhibitors of PAX3-FOXO1. Stock DMSO Solutions of these compounds were used to prepare 100 μM solutions in growth medium in 384-well plates also containing 16 wells each of a positive control (Actinomycin D, Sigma, Cat #A1410) and negative control (DMSO). Screening compounds along with the positive and negative controls were added to assay plates by transferring 3 μL of the prepared 100 μM dilutions using an automated liquid handler (Agilent, Bravo). Treated plates were incubated for 24 h. At the end of this period, treated plates were allowed to equilibrate to room temperature for 30 minutes. SteadyLite Plus luciferase assay reagent powder (PerkinElmer, Cat #6066759) was reconstituted in its buffer in parallel and was also allowed to equilibrate to room temperature.
After transferring 30 μL of the luciferase assay reagent using a liquid handler, plates were further incubated at room temperature for 10 minutes. Finally, luminescence measurements were carried out using a multi-label microplate reader (BMG, Pherastar FSX) set in luminescence mode. Cell viability was assessed by adding XTT reagent (10 μL per well) in clear plates containing treated ALK-Luc cells. XTT treated plates were read using a plate reader in absorbance mode at 450 nm (PerkinElmer, Envision) after further incubation for 1 hour to allow cells to metabolize XTT to a colored formazan product. Luminescence and XTT absorbance values were normalized to the average of the negative controls on each plate and were calculated as a percentage of these controls. Performance of the screening assay was routinely monitored via calculation of Z-factor (Zhang et al., J. Biomol. Screen., 4: 67-73 (1999)) with Z′ for all plates found to be >0.7.
RH4 ALK-Luc and RH4 CMV-Luc cells were seeded into separate white-walled and bottomed 384-well plates and were incubated and treated with screen hits and epigenome compounds. The highest test concentration of these compounds (10-fold) were prepared from DMSO stock solutions via dilution in medium. […]
For orientation: In a reporter assay the amount or activity of a reporter protein is the signal.

“Also recorded” adds a separate entry of the source.

On to `O=C(O)CCC(=O)C(=O)O` [Compound 2-OG, 2-oxoglutaric acid, reference compound], for which, in assay [1], the “binding (WaterLOGSY)” value is reported as “did not bind; also recorded: does not bind”. Besides, the “binding (CPMG)” value in assay [2] was “did not bind; also recorded: does not bind”. As for `O=C(NNC(=O)c1ccccn1)c1ccccc1` [PFI-65], in assay [3], the “Avg Absorbance @ 1 μM, ALK-Luc” value is reported as 103.5 and the “Avg Absorbance @ 10 μM, ALK-Luc” value is 109.2. The corresponding values for `NNC(=O)c1cccc(C(=O)NN)n1` [PFI-66] are 91.6 and 91.3. The corresponding values for `Cc1cccc(C(=O)NNC(=O)c2cccc(C)c2)c1` [PFI-67] are 94.6 and 112.8. With `CC(=O)NNC(=O)c1ccccn1` [PFI-68], in assay [3], the “Avg Absorbance @ 1 μM, ALK-Luc” value was 95.0 and the “Avg Absorbance @ 10 μM, ALK-Luc” value stood at 98.0. Take `CCC(=O)NNC(=O)c1ccccn1` [PFI-69]: in assay [3], the “Avg Absorbance @ 1 μM, ALK-Luc” value is 104.3 and the “Avg Absorbance @ 10 μM, ALK-Luc” value is recorded as 94.4. Take `O=CNNC(=O)c1ccccn1` [PFI-70]: in assay [3], the “Avg Absorbance @ 1 μM, ALK-Luc” value is reported as 99.7 and the “Avg Absorbance @ 10 μM, ALK-Luc” value amounted to 93.3.

Take `NNC(=O)c1ccc(C(=O)NN)nc1` [PFI-71]: in assay [3], the “Avg Absorbance @ 1 μM, ALK-Luc” value was 100.1 and the “Avg Absorbance @ 10 μM, ALK-Luc” value was determined as 108.6.

With `O=C(NNC(=O)c1cccc(C(=O)NNC(=O)c2ccc(Cl)c(Cl)c2)n1)c1ccc(Cl)c(Cl)c1` [PFI-72], in assay [3], the “Avg Absorbance @ 10 μM, ALK-Luc” value is on record as 91.1. On to `Cc1cccc(C(=O)NNC(=O)c2ccccc2)c1` [PFI-73], for which, in assay [3], the “Avg Absorbance @ 1 μM, ALK-Luc” value was 98.3 and the “Avg Absorbance @ 10 μM, ALK-Luc” value worked out at 122.8. Regarding `CCCC(=O)NNC(=O)c1ccccn1` [PFI-74], in assay [3], the “Avg Absorbance @ 1 μM, ALK-Luc” value is 102.4 and the “Avg Absorbance @ 10 μM, ALK-Luc” value is reported as 94.7. As to `Cc1nc(C)c(C(=O)NNC(=O)c2ccccc2)cc1C(=O)NNC(=O)c1ccccc1` [PFI-75], in assay [3], the “Avg Absorbance @ 1 μM, ALK-Luc” value is 100.2 and the “Avg Absorbance @ 10 μM, ALK-Luc” value worked out at 110.5. Take `CC(=O)NNC(=O)c1cnccn1` [PFI-76]: in assay [3], the “Avg Absorbance @ 1 μM, ALK-Luc” value is on record as 105.6 and the “Avg Absorbance @ 10 μM, ALK-Luc” value came to 100.2. Take `O=CNNC(=O)c1cnccn1` [PFI-77]: in assay [3], the “Avg Absorbance @ 1 μM, ALK-Luc” value worked out at 95.8 and the “Avg Absorbance @ 10 μM, ALK-Luc” value came to 96.5.

With `Cc1nc(C)c(C(=O)NN)cc1C(=O)NN` [PFI-78], in assay [3], the “Avg Absorbance @ 1 μM, ALK-Luc” value was found to be 100.3 and the “Avg Absorbance @ 10 μM, ALK-Luc” value was found to be 95.3.

As for `NNC(=O)c1ccc(C(=O)NN)o1` [PFI-79], in assay [3], the “Avg Absorbance @ 1 μM, ALK-Luc” value is 97.0 and the “Avg Absorbance @ 10 μM, ALK-Luc” value came out at 97.6. The corresponding values for `CC(=O)NNC(=O)c1ccc2ccccc2n1` [PFI-80] are 90.1 and 96.6. With `CCC(CC)C(=O)NNC(=O)c1ccccn1` [PFI-81], in assay [3], the “Avg Absorbance @ 1 μM, ALK-Luc” value worked out at 97.7 and the “Avg Absorbance @ 10 μM, ALK-Luc” value worked out at 89.1. As for `O=C(NNC(=O)c1ccccn1)c1ccccn1` [PFI-82], in assay [3], the “Avg Absorbance @ 1 μM, ALK-Luc” value was 112.4 and the “Avg Absorbance @ 10 μM, ALK-Luc” value turned out to be 107.1. On to `O=C(Cc1ccc(Cl)cc1)NNC(=O)c1ccccn1` [PFI-83], for which, in assay [3], the “Avg Absorbance @ 1 μM, ALK-Luc” value was 97.8 and the “Avg Absorbance @ 10 μM, ALK-Luc” value came to 32.2. `Cc1cc(C)cc(OCC(=O)NNC(=O)c2ccccn2)c1` [PFI-84]: in assay [3], the “Avg Absorbance @ 1 μM, ALK-Luc” value is reported as 99.4 and the “Avg Absorbance @ 10 μM, ALK-Luc” value was 56.5. In the case of `CS(=O)(=O)NCCc1ccc(C(=O)NNC(=O)c2ccccn2)cc1` [PFI-85], in assay [3], the “Avg Absorbance @ 1 μM, ALK-Luc” value was 99.7 and the “Avg Absorbance @ 10 μM, ALK-Luc” value stood at 100.2.

As to `Cc1cc(C)cc(C(=O)NNC(=O)c2ccc(O)cc2)c1` [PFI-86], in assay [3], the “Avg Absorbance @ 1 μM, ALK-Luc” value was determined as 97.7 and the “Avg Absorbance @ 10 μM, ALK-Luc” value worked out at 84.1. The corresponding values for `COCc1cccc(C(=O)NNC(=O)c2ccccn2)c1` [PFI-87] are 115.5 and 120.4. The corresponding values for `Cc1cccc(C(=O)NNC(=O)c2ccccc2)c1` [PFI-88] are 91.6 and 121.4. Take `CC(C)CC(=O)NNC(=O)c1ccco1` [PFI-89]: in assay [3], the “Avg Absorbance @ 1 μM, ALK-Luc” value is recorded as 95.1 and the “Avg Absorbance @ 10 μM, ALK-Luc” value is recorded as 92.5.

The values are drawn from patent publication US20230015647A1, “INHIBITORS OF HISTONE DEMETHYLASES (PFI-63 AND PFI-90) FOR THE TREATMENT OF CANCER AND FOR THE INHIBITION OF HISTONE DEMETHYLASE IN CELLS” (The United States of America,as represented by the …, priority 2019, published 2023).
